Source: patent publication US20220363681A1, “OXO SIX-MEMBERED CYCLOPYRIMIDINE COMPOUND, PREPARATION METHOD AND MEDICAL USE THEREOF” (GenFleet Therapeutics (Shanghai) Inc., priority 2019, published 2022)

Assays:
[1] = test system: A549 cells (Kras G12S mutation); assay: Cell proliferation inhibition experiment, 3D cell model, CellTiter-Glo (A549); format: cell-based, human; conditions: A549, 2% FBS F-12K, 384-well sphere plate, cultured 5 days with compound
Protocol: (§1) NCI-H358 was a human non-small cell lung cancer cell line with Kras G12C mutation, cultured in 10% FBS RPMI-1640 medium; A549 was a human lung adenocarcinoma cell line with Kras G12S mutation, cultured in 10% FBS F-12K medium. The cells in the logarithmic growth phase was taken, digested with trypsin EDTA, collected and counted, and H358 was adjusted to 1.8E4 cells/ml using 2% FBS RPMI-1640 medium, and A549 was adjusted to 8.9E3 cells/ml using 2% FBS F-12K medium; 800 (45 μl) H358 or 400 (45 μl) A549 cells were seeded in a 384-well sphere plate respectively, cultured overnight to establish a 3D cell model. DMSO was used to prepare 1000× compound 3.16-fold gradient concentration stock solution, and 2% FBS medium was used to dilute 100-fold to 10× compound stock solution. On the second day after cell seeding, 5 μl 10× compound stock solution was added to each cell culture well, the final concentration was 1×, and DMSO content was 0.1%. DMSO was used as the experimental control (control) and 2% FBS medium as the blank control (blank). After the compound and cells were added and cultured for 5 days, 25 μl CellTiter-Glo working solution was added to each well, mixed at 400 rpm and incubated for 30 minutes. After standing 30 minutes at room temperature, 40 μl of the mixture was transfered to a 384-well plate with a non-transparent white bottom, the luminescence chemiluminescence value was read, and the cells proliferation inhibition rate IR (%)=(RLU control-RLU compound)/(RLU control-RLU blank)×100% was calculated, Prism 6 four-parameter method was used to fit the compound's gradient dilution concentration and the corresponding cell proliferation inhibition rate, and the IC50 value was calculated.

[2] = test system: Kras G12C mutant NCI-H358 cells; assay: Cell proliferation inhibition experiment, 3D cell model, CellTiter-Glo (H358); format: cell-based, human; conditions: NCI-H358, 2% FBS RPMI-1640, 384-well sphere plate, cultured 5 days with compound
Protocol: as §1

Row | Structure (SMILES) | IC50 ([1]; Homo sapiens, A549, 120 h) [nM] | IC50 ([2]; Homo sapiens, NCI-H358, 120 h) [nM] | IC50 [2] [nM] | IC50 [1] [nM]
1 | C=CC(=O)N1CCN(c2nc(OC[C@@H]3CCCN3C)nc3c(OC4CC(F)(F)C4)c(-c4c(C)ccc5[nH]ncc45)c(Cl)cc23)C[C@@H]1CC#N [Compound Z6, 2-((2S)-1-acryloyl-4-(6-chloro-8-(3,3-difluorocyclobutoxy)-7-(5-methyl-1H-indazol-4-yl)-2-(((S)-1-methylpyrrolidin-2-yl)methoxy)quinazolin-4-yl)piperazin-2-yl) acetonitrile] | > 5000 | 139 |  | 
2 | C=CC(=O)N1CCN(c2nc(OC[C@@H]3CCCN3C)nc3c(OC4CC4)c(-c4c(C)ccc5[nH]ncc45)c(Cl)cc23)CC1 [Compound Z7, 1-(4-(6-chloro-8-cyclopropoxy-7-(5-methyl-1H-indazol-4-yl)-2-(((S)-1-methylpyrrolidin-2-yl)methoxy)quinazolinpyridin-4-yl)piperazin-1-yl)prop-2-en-1-one] | > 1000 |  | 16 | 
3 | C=CC(=O)N1CCN(c2nc(OC[C@@H]3CCCN3C)nc3c(OC4CCC4)c(-c4c(C)ccc5[nH]ncc45)c(Cl)cc23)CC1 [Compound Z8, 1-(4-(6-chloro-8-cyclobutoxy-7-(5-methyl-1H-indazol-4-yl)-2-(((S)-1-methylpyrrolidin-2-yl)methoxy)quinazolinpyridin-4-yl)piperazin-1-yl)prop-2-en-1-one] | > 10000 | 70 |  | 
4 | C=CC(=O)N1CCN(c2nc(OC[C@@H]3CCCN3C)nc3c(OC4CCOC4)c(-c4c(C)ccc5[nH]ncc45)c(Cl)cc23)CC1 (stereo partly drawn) [Compound Z10A, 1-(4-(6-chloro-7-(5-methyl-1H-indazol-4-yl)-2-(((S)-1-methylpyrrolidin-2-yl)methoxy)-8-((tetrahydrofuran-3-yl)oxy)quinazolin-4-yl)piperazin-1-yl)prop-2-en-1-one] | > 10000 | 257 |  | 
5 | C=CC(=O)N1CCN(c2nc(OC3CCN(C)CC3)nc3c(OC4CC4)c(-c4c(C)ccc5[nH]ncc45)c(Cl)cc23)CC1 [Compound Z12, 1-(4-(6-chloro-8-cyclopropoxy-7-(5-methyl-1H-indazol-4-yl)-2-((1-methylpiperidin-4-yl)oxy)quinazolin-4-yl)piperazin-1-yl)prop-2-en-1-one] |  |  | 18 | > 10000
6 | C=CC(=O)N1CCN(c2nc(OC[C@@H]3CCCN3C)nc3c(OC4CC4)c(-c4c(O)cccc4F)c(Cl)cc23)CC1 [Compound Z13] | > 1000 | 336 |  | 
7 | C=CC(=O)N1CCN(c2nc(OC[C@@H]3CCCN3C)nc3c(OC4CC4)c(-c4c(C)ccc5[nH]ncc45)c(Cl)cc23)[C@H](C)C1 [Compound Z27, 1-((3R)-4-(6-chloro-8-cyclopropoxy-7-(5-methyl-1H-indazol-4-yl)-2-(((S)-1-methylpyrrolidin-2-yl)methoxy)quinazolin-4-yl)-3-methylpiperazin-1-yl)prop-2-en-1-one] | > 1000 | 324 |  | 
8 | C=CC(=O)N1CCN(c2nc(OC[C@@H]3CCCN3C)nc3c(OC4CC4)c(-c4c(C)ccc5[nH]ncc45)c(Cl)cc23)[C@@H](C)C1 [Compound Z28, 1-((3S)-4-(6-chloro-8-cyclopropoxy-7-(5-methyl-1H-indazol-4-yl)-2-(((S)-1-methylpyrrolidin-2-yl)methoxy)quinazolin-4-yl)-3-methylpiperazin-1-yl)prop-2-en-1-one] | > 1000 | 11 |  | 
9 | C=CC(=O)N1CCN(c2nc(OC[C@@H]3CCCN3C)nc3c(OC4CC4)c(-c4c(C)ccc5[nH]ncc45)c(Cl)cc23)C[C@@H]1C [Compound Z29, 1-((2S)-4-(6-chloro-8-cyclopropoxy-7-(5-methyl-1H-indazol-4-yl)-2-((((S)-1-methylpyrrolidin-2-yl))methoxy)quinazolin-4-yl)-2-methylpiperazin-1-yl)prop-2-en-1-one] | > 10000 | 51 |  | 
10 | C=CC(=O)N1CCN(c2nc(OC[C@@H]3CCCN3C)nc3c(OC4CC4)c(-c4c(C)ccc5[nH]ncc45)c(Cl)cc23)C[C@H]1C [Compound Z30, 1-((2R)-4-(6-chloro-8-cyclopropoxy-7-(5-methyl-1H-indazol-4-yl)-2-((((S)-1-methylpyrrolidin-2-yl))methoxy)quinazolin-4-yl)-2-methylpiperazin-1-yl)prop-2-en-1-one] | > 5000 | 26 |  | 
11 | C=CC(=O)N1CCN(c2nc(OC[C@@H]3CCCN3C)nc3c(OC4CC4)c(-c4c(C)ccc5[nH]ncc45)c(Cl)cc23)CC1CC#N (stereo partly shown) [Compound Z31] | > 10000 | 34 |  | 
12 | C=CC(=O)N1CCN(c2nc(OC3CCN(C)C3)nc3c(OC4CC4)c(-c4c(C)ccc5[nH]ncc45)c(Cl)cc23)CC1 (stereo not shown) [Compound Z32] | > 1000 | 20 |  | 
13 | C=CC(=O)N1CCN(c2nc(N3CC(N(C)C)C3)nc3c(OC4CC4)c(-c4c(C)ccc5[nH]ncc45)c(Cl)cc23)CC1 [Compound Z33, 1-(4-(6-chloro-8-cyclopropoxy-2-(3-(dimethylamino)azetidine-1-yl)-7-(5-methyl-1H-indazol-4-yl)quinazolin-4-yl)piperazin-1-yl)prop-2-en-1-one] | > 5000 | 39 |  | 
14 | C=CC(=O)N1CCN(c2nc(N3CCC(N(C)C)CC3)nc3c(OC4CC4)c(-c4c(C)ccc5[nH]ncc45)c(Cl)cc23)CC1 [Compound Z34, 1-(4-(6-chloro-8-cyclopropoxy-2-(4-(dimethylamino)piperidin-1-yl)-7-(5-methyl-1H-indazol-4-yl)quinazolin-4-yl)piperazin-1-yl)prop-2-en-1-one] | > 30000 | 38 |  | 
15 | C=CC(=O)N1CCN(c2nc(N3CCC(N(C)C)C3)nc3c(OC4CC4)c(-c4c(C)ccc5[nH]ncc45)c(Cl)cc23)CC1 (stereo not shown) [Compound Z35, 1-(4-(6-chloro-8-cyclopropoxy-2-(3-(dimethylamino)pyrrolidin-1-yl)-7-(5-methyl-1H-indazol-4-yl)quinazolin-4-yl)piperazin-1-yl)prop-2-en-1-one] | > 5000 | 43 |  | 
16 | C=CC(=O)N1CCN(c2nc(OCCN(C)C)nc3c(OC4CC4)c(-c4c(C)ccc5[nH]ncc45)c(Cl)cc23)CC1 [Compound Z36] | > 30000 | 16 |  | 
17 | C=CC(=O)N1CCN(c2nc(N3CCN(C)CC3)nc3c(OC4CC4)c(-c4c(C)ccc5[nH]ncc45)c(Cl)cc23)CC1 [Compound Z37] | > 5000 | 51 |  | 
18 | C=CC(=O)N1CCN(c2nc(OC[C@@H]3C[C@@H](F)CN3C)nc3c(OC4CC4)c(-c4c(C)ccc5[nH]ncc45)c(Cl)cc23)CC1 [Compound Z38, 1-(4-(6-chloro-8-cyclopropoxy-2-((((2S, 4R)-4-fluoro-1-methylpyrrolidin-2-yl)methoxy)-7]-(5-methyl-1H-indazol-4-yl)quinazolin-4-yl)piperazin-1-yl)prop-2-en-1-one] | > 30000 | 19 |  | 
19 | C=CC(=O)N1CCN(c2nc(O[C@@H]3CCN(C)C3)nc3c(OC4CC4)c(-c4c(C)ccc5[nH]ncc45)c(Cl)cc23)CC1 [Compound Z39] | > 5000 | 21 |  | 
20 | C=CC(=O)N1CCN(c2nc(O[C@H]3CCN(C)C3)nc3c(OC4CC4)c(-c4c(C)ccc5[nH]ncc45)c(Cl)cc23)CC1 [Compound Z40] |  |  | 25 | > 1000
